Counter-ions that a name gives are not always drawn.
Legend:
VEGF promoter = VEGF promoter luciferase reporter assay in HEK293 cells; format: cell-based, human; conditions: TPA 10 ng/ml 18 hours
Protocol: All expression plasmids were transiently transfected into HEK293 cells in a 96-well plate (0.1 μg/well) by using Effectene transfection reagent (Qiagen, Valencia, Calif.) according to the manufacturer's manual. HEK293 cells were maintained in Dulbecco's modified Eagle medium (Sigma, St. Louis, Mo.) supplemented with 10% fetal bovine serum (Atlanta Biologicals, Lawrenceville, Ga.) and incubated at 37° C. in a 5% CO2 incubator. After 24 hrs incubation, the medium was changed to DMEM with 0.2% FBS, and the transfectants were exposed to various concentrations of compound I and TPA (10 ng/ml). Cells were lysed with passive lysis buffer and the luciferase assay was performed using the Firefly-Luciferase reporter assay system (Promega, Madison, Wis.) and MLX Luminometer (Dynex Technology, Chantilly, Va.).
Three different luciferase reporter genes, AP-1 reporter containing four times TRE consensus originated from GCN4 and SRE reporter purchased from Stratagene (La Jolla, Calif.) respectively are as described previously (Suzukawa et al., Environ. Health Perspect., 2002, 110, 865-70). […]
Inhibition of NFκB transactivation would be expected to result in suppressed expression of genes whose transcription depends on NFκB. Quantitative RT-PCR was used to measure endogenous levels of IL-6 mRNA, transcribed from a gene whose transcription depends on NFκB but not AP-1. […]

IκBα = experiment: Phosphorylated IκBα levels in TPA treated breast cancer cell lines; format: cell-based; conditions: TPA treated MCF-7, T47D, MDA-MB-231
Protocol: In order to evaluate the potential therapeutic activity of the compound, tests for the biological activity of compound I were performed. The compound is non-toxic to MCF-7, T47D, and MDA-MB-231 breast cancer cells as estimated by XTT assay at 10 μM. To determine the effects of compound I on invasion by breast cancer cell lines, a matrigel invasion assay was used. The levels of phosphorylated IκBα were confirmed in TPA treated ER-positive (MCF-7 and T47D) and ER-negative (MDA-MB-231) breast cancer cell lines and compared the levels to those after pretreatment with compound I. Although induced levels of phosphorylated IκBα varied with the cell line, IκBα phosphorylation was eliminated by compound I treatment in all three breast cancer cell lines. Compound I also produced no effect on the estrogen receptor activity in the ER-positive breast cancer cells using ERE promoter luciferase reporter assay. Invasion capacity of breast cancer cells was increased by TPA stimulation compared to DMSO treated vehicle control. […] Following anchorage-independent colony induction in TPA-treated cells without or with compound I, colonies were lysed and measured with CyQuant GR Dye to detect DNA by fluorescence plate reader as a measure of colony count. Total transformed colony numbers were calculated from RFU and cell dose curve of JB6 cells. […]

IKKα/β = experiment: Immunoblot of phosphorylated IKKα/β in HEK293 cells; format: cell-based
Protocol: To measure endogenous level of several proteins in response to TPA induction and compound I, HEK293 cells were lysed with RIPA buffer (10 mM Tris-HCl pH 7.5, 1 mM EDTA, 0.1% sodium dodecyl sulfate, 0.1% deoxycholate, and protease inhibitor). Whole cell extracts were subjected to immunoblot analysis with the following antibodies: p65 (F-6), p50 (E-10), p52 (C-5), RelB (C-19), IκBα (C-21), PCNA (F-2) were obtained from Santa Cruz Biotechnology (Santa Cruz, Calif.). IKKα, IKKβ, IKKγ, phospho-IκBα, phospho-IKKα/β, phospho-IKKγ, pohospho-Stat3 (Tyr 705 and Ser 727), phospho-p65 (Ser536 and Ser276), phospho-p44/42, phospho-JNKs were purchased from Cell Signaling (Danvers, Mass.), and α-tubulin from Sigma (St. Louis, Mo.). Nuclear and cytoplasmic extracts were prepared with HEK293 cells by NE-PER Nuclear and Cytoplasmic Extraction Reagents (Pierce Biotechnology, Rockford, Ill.) according to the manufacturer's protocol.
To characterize the activity of compound I in targeting events upstream of NFκB, endogenous levels of kinases involved in NFκB activation were examined by immunoblot analysis. The well-established upstream regulators of NFκB activation are IKKα, IKKβ, and IκBα. […] Moreover, the phosphorylation of IκBα was inhibited even at 1.1 μM showing dose-dependent decrease by compound I pretreatment. […]

Cc1cc(N)ccc1N=Nc1ccc(S(=O)(=O)CCOS(=O)(=O)O)cc1 [compound I, 2-(4-((4-amino-2-methylphenyl)diazenyl)phenylsulfonyl)ethyl hydrogen sulfate]
Luciferase activity driven by VEGF promoter (VEGF promoter): did not significantly affect | IκBα phosphorylation in breast cancer cell lines (IκBα): eliminated | TPA-induced phosphorylation of IKKα/β (IKKα/β; HEK293, compared with IκBα inhibition at 17.0 and 8.5 μM): reduces | TNFα-induced phosphorylation of IKKα/β (IKKα/β; at 1 hour): inhibits
